Experimental data: paper PMC7395068, “The evolution of strategies to minimise the risk of human drug-induced liver injury (DILI) in drug discovery and development” (Archives of Toxicology, 2020)
Where two headings read alike, the source gives them in different places.

What was measured:
[1] = test system: THLE or HepG2 cells, isolated mitochondria, BSEP; settings: cited from earlier work
[2] = Phase 3 clinical trials; ref Aleo et al. 2019; cited from earlier work
[3] = cited from earlier work
HepG2 cells [4] = settings: In vitro Assay; ref O'Brien 2006; cited from earlier work
HepG2 cells [5] = settings: In vitro Assay; ref Tolosa 2012; cited from earlier work
[6] = cited from earlier work; remark: listed apart in the source
PHH [7] = settings: cited from earlier work
HepG2 [8] = settings: cited from earlier work
HepG2 [9] = settings: cited from earlier work; remark: listed apart in the source
human hepatocytes = settings: cited from earlier work
HepG2 [10] = test system: HepG2; set-up: method as in Albrecht 2019; settings: In vitro Assay; ref Albrecht 2019; cited from earlier work
PHH spheroids = settings: cited from earlier work
HepaRG cells = settings: cited from earlier work
[11] = test system: isolated mouse liver mitochondria; settings: In vitro Assay; ref Porceddu 2012; cited from earlier work
rBsep = settings: In vitro Assay; ref Dawson 2012; cited from earlier work
[12] = Plasma free fraction (fu) and unbound Cmax (Cmax,u); assay type: in vitro ADME, human; settings: unbound plasma Cmax
[13] = test system: primary human hepatocytes, NIH3T3 fibroblasts, BSEP, CYP3A4; settings: cited from earlier work
PHH [14] = settings: cited from earlier work; remark: listed apart in the source
hLiMTs [15] = settings: cited from earlier work
[16] = read-out: Human plasma Cmax; total plasma Cmax.tot, median of 9 literature references; cited from earlier work
[17] = plasma free fraction; cited from earlier work
hLiMTs [18] = assay: Combined HCI (HCS) and cellular ATP 3D assay in hLiMTs; settings: for AC50 / minimal effective concentration: Homo sapiens
HepaRG spheroids = assay: Combined HCI (HCS) and cellular ATP 3D assay in HepaRG spheroids; settings: for AC50 / minimal effective concentration: Homo sapiens
[19] = In vitro Assay, ref Albrecht 2019
[20] = In vitro Assay, ref Schadt 2015
[21] = Microtissue model structural based (HCI), combined HCS and ATP, MEC < 25 × Cmax.tot cut-off

Structure (SMILES): Cc1cc(OCCCS(C)(=O)=O)cc(C)c1-c1cccc(COc2ccc3c(c2)OC[C@H]3CC(=O)O)c1 [TAK-875, reference compound]
- Partition HRM hybrid scoring model classification ([1]; ref Aleo et al. 2019): DILI concern
- clinical liver finding [2]: liver injury

Structure (SMILES): CC(=O)N[C@@H](CS)C(=O)O [acetylcysteine]
- DILI +VE (5-8), DILI -VE (-4) ([3]; ref Chen 2016): -VE
- DILI severity category ([3]; ref Chen 2016): vNo-DILI-Concern
- Structural based (HCI) (HepG2 cells [4]): +VE (lowest HCI endpoint IC50 (or in the absence of dose–response < 100 µM) < 30 × total human plasma exposure levels (Cmax.tot))
- Structural based (HCI) (HepG2 cells [5]): -VE
- In vivo DILI ([6]; ref Albrecht 2019): -VE
- In vivo DILI ([6]; ref O'Brien 2006): -VE
- In vivo DILI ([6]; ref Tolosa 2012): -VE
- Cytotoxicity PHH 48 hrs (PHH [7]; [19]): -VE
- Cytotoxicity HepG2 48 hrs (HepG2 [8]; [19]): -VE

Structure (SMILES): O=C1O[C@H]([C@@H](O)CO)C(O)=C1O [ascorbic acid]
- Cytotoxicity PHH 48 hrs (PHH [7]; [19]): -VE
- Cytotoxicity HepG2 48 hrs (HepG2 [8]; [19]): -VE

Structure (SMILES): C[S+](C)[O-] [dimethylsulfoxide]
- In vivo DILI ([6]; in vivo): -VE
- Cytotoxicity PHH 48 hrs (PHH [7]): -VE
- Cytotoxicity HepG2 48 hrs (HepG2 [8]): -VE

Structure (SMILES): CCO [ethanol]
- Cytotoxicity PHH 48 hrs (PHH [7]): +VE
- Cytotoxicity HepG2 48 hrs (HepG2 [8]): +VE

Structure (SMILES): OC[C@H]1OC(O)[C@H](O)[C@@H](O)[C@@H]1O (some centres unmarked) [glucose, reference compound]
- Cytotoxicity PHH 48 hrs (PHH [7]; [19]): +VE
- Cytotoxicity HepG2 48 hrs (HepG2 [9]; [19]): +VE

Structure (SMILES): COc1ccc2[nH]cc(CCNC(C)=O)c2c1 [melatonin]
- Structural based (HCI) (human hepatocytes; In vitro Assay, ref Xu 2008): -VE
- Cytotoxicity PHH 48 hrs (PHH [7]; [19]): -VE
- Cytotoxicity HepG2 48 hrs (HepG2 [8]; [19]): -VE

Structure (SMILES): COC(=O)c1ccc(O)cc1 [methylparaben]
- In vivo DILI ([6]; in vivo): -VE
- Cytotoxicity PHH 48 hrs (PHH [7]): -VE
- Cytotoxicity HepG2 48 hrs (HepG2 [9]): -VE

Structure (SMILES): CO[C@H]1/C=C/O[C@@]2(C)Oc3c(C)c(O)c4c(O)c(c(/C=N/N5CCN(C)CC5)c(O)c4c3C2=O)NC(=O)/C(C)=C\C=C\[C@H](C)[C@H](O)[C@@H](C)[C@@H](O)[C@@H](C)[C@H](OC(C)=O)[C@@H]1C [rifampicin, reference compound]
- Cytotoxicity HepG2 48 hrs (HepG2 [10]): +VE
- Structural based (HCI) (HepG2 cells [4]): +VE
- Structural based (HCI) (HepG2 cells [5]): +VE
- DILI in vitro assay prediction, Vorrink (2018) (PHH spheroids; PHH spheroids, ATP, 14 days, IC20 < 20 × Cmax.tot, ref Vorrink et al. 2018): identified
- In vivo DILI ([6]; ref Albrecht 2019): +VE
- In vivo DILI ([6]; ref Dawson 2012): +VE
- In vivo DILI ([6]; ref Gustafsson 2014): +VE
- In vivo DILI ([6]; ref O'Brien 2006): +VE
- In vivo DILI ([6]; ref Porceddu 2012): +VE
- In vivo DILI ([6]; ref Schadt 2015): +VE
- In vivo DILI ([6]; ref Tolosa 2012): +VE
- Cytotoxicity PHH 48 hrs (PHH [7]; [19]): +VE
- DILI identification by high-throughput transcriptomics (HepaRG cells; HepaRG cells, BMCs in relation to 10 × human Cmax.tot, ref National Toxicology Program): identified
- in vitro data EC2<=1x Cmax [11]: +VE
- in vitro data EC20<=2uM [11]: -VE
- Inhibition of rBsep cutoff<1& cmax u>.2 (rBsep): +VE
- Inhibition of rBsep cutoff<3 (rBsep): +VE

Structure (SMILES): Oc1cc(Cl)ccc1Oc1ccc(Cl)cc1Cl [triclosan]
- In vivo DILI ([6]; ref Albrecht 2019): -VE
- Cytotoxicity PHH 48 hrs (PHH [7]; [19]): -VE
- Cytotoxicity HepG2 48 hrs (HepG2 [9]; [19]): +VE

Structure (SMILES): N[C@@H]1[C@H]2CN(c3nc4c(cc3F)c(=O)c(C(=O)O)cn4-c3ccc(F)cc3F)C[C@@H]12 [trovafloxacin]
- Human plasma Cmax,u [12]: 1.205 µM
- DILI +VE (5-8), DILI -VE (-4) ([3]; in vivo): +VE
- DILI severity category (Chen et al. [2016]) ([3]; in vivo): Most
- DILI in vitro assay prediction, Schadt (2015) ([13]; BSEP & Metabolism based, ref Schadt et al. 2015): -VE
- Cellular toxicity (3T3 cells) [13, 20]: -VE
- Combined Assay [13, 20]: -VE
- GSH adduct HML [13, 20]: -VE
- Hepatocyte cellular toxicity [13, 20]: -VE
- MitoTox 3T3 [13, 20]: -VE
- TDI CYP3A4 [13, 20]: -VE
- hBSEP inhibition [13, 20]: -VE
- Structural based (HCI) (human hepatocytes): +VE
- Rule of Two hybrid HRM Score ≥3, Aleo (2019) [1]: +VE (key: +VE: Rule of Two hybrid HRM Score ≥3)
- Rule of Two hybrid HRM Score ≥8, Aleo (2019) [1]: -VE
- PHH ATP <100uM (PHH [14]): -VE
- PHH/100uM, Proctor (2017) (PHH [14]): -VE
- hLiMTs ATP <100uM (hLiMTs [15]): -VE
- hLiMTs/100uM, Proctor (2017) (hLiMTs [15]): -VE
- DILI in vitro assay prediction, Vorrink (2018) (PHH spheroids): identified
- Cmax [16]: 5.02 µM
- fu [17]: 0.240
- Assigned DILI category ([6]; in vivo): 3
- In vivo DILI ([6]; in vivo): +VE
- DILI identification by high-throughput transcriptomics (HepaRG cells): identified
- AC50 (hLiMTs [18]; read-out: ATP endpoint AC50): 29.4 µM
- minimal effective concentration (hLiMTs [18]; read-out: ATP endpoint MEC): 16.4 µM
- AC50 (hLiMTs [18]; read-out: HCS endpoint AC50): 38.9 µM
- minimal effective concentration (hLiMTs [18]; read-out: HCS endpoint MEC): 20.1 µM
- DILI prediction hLiMTs (HCS-MEC) (hLiMTs [18]; [21]): +VE (MEC < 25 × Cmax.tot cut-off)
- hLiMTs <25x Avg Cmax ATP (hLiMTs [18]; hLiMTs, ATP endpoint, cut-off <25x Avg Cmax): +ve
- hLiMTs <100x Avg Cmaxu ATP (hLiMTs [18]; hLiMTs, ATP endpoint, cut-off <100x Avg Cmaxu): +ve (<100x Avg Cmaxu)
- hLiMTs <25x Avg Cmax HCS (hLiMTs [18]; hLiMTs, HCS endpoints, cut-off <25x Avg Cmax): +ve
- hLiMTs <100x Avg Cmaxu HCS (hLiMTs [18]; hLiMTs, HCS endpoints, cut-off <100x Avg Cmaxu): +ve (<100x Avg Cmaxu)
- hLiMTs <25x Avg Cmax All (hLiMTs [18]; hLiMTs, all endpoints (ATP and HCS), cut-off <25x Avg Cmax): +ve
- hLiMTs Cmax max All (hLiMTs [18]; hLiMTs, all endpoints, Cmax max used): +ve
- hLiMTs Cmax min All (hLiMTs [18]; hLiMTs, all endpoints, Cmax min used): +ve
- hLiMTs <10 uM All (hLiMTs [18]; hLiMTs, all endpoints, cut-off <10 uM): -ve
- hLiMTs <100x Avg Cmaxu All (hLiMTs [18]; hLiMTs, all endpoints, cut-off <100x Avg Cmaxu): +ve (<100x Avg Cmaxu)
- HepaRG <25x Avg Cmax ATP (HepaRG spheroids; HepaRG, ATP endpoint, cut-off <25x Avg Cmax): +ve
- HepaRG <100x Avg Cmaxu ATP (HepaRG spheroids; HepaRG, ATP endpoint, cut-off <100x Avg Cmaxu): +ve (<100x Avg Cmaxu)
- HepaRG <25x Avg Cmax HCS (HepaRG spheroids; HepaRG, HCS endpoints, cut-off <25x Avg Cmax): +ve
- HepaRG <100x Avg Cmaxu HCS (HepaRG spheroids; HepaRG, HCS endpoints, cut-off <100x Avg Cmaxu): +ve (<100x Avg Cmaxu)
- HepaRG <25x Avg Cmax All (HepaRG spheroids; HepaRG, all endpoints (ATP and HCS), cut-off <25x Avg Cmax): +ve
- HepaRG Cmax max All (HepaRG spheroids; HepaRG, all endpoints, Cmax max used): +ve
- HepaRG Cmax min All (HepaRG spheroids; HepaRG, all endpoints, Cmax min used): +ve
- HepaRG <10 uM All (HepaRG spheroids; HepaRG, all endpoints, cut-off <10 uM): +ve (<10 uM)
- HepaRG <100x Avg Cmaxu All (HepaRG spheroids; HepaRG, all endpoints, cut-off <100x Avg Cmaxu): +ve (<100x Avg Cmaxu)
- AC50 (HepaRG spheroids; HepaRG, read-out: ATP endpoint AC50): 12.9 µM
- minimal effective concentration (HepaRG spheroids; HepaRG, read-out: ATP endpoint MEC): 7.27 µM
- AC50 (HepaRG spheroids; HepaRG, read-out: HCS endpoint AC50): 24.9 µM
- minimal effective concentration (HepaRG spheroids; HepaRG, read-out: HCS endpoint MEC): 17.5 µM
- DILI prediction HepaRG spheroids (HCS-MEC) (HepaRG spheroids; [21]): +VE (MEC < 25 × Cmax.tot cut-off)
